# Experimental data reported in ChEMBL document CHEMBL4043115, “1,3-Oxazole-based selective picomolar inhibitors of cytosolic human carbonic anhydrase II alleviate ocular hypertension in rabbits: Potency is supported by X-ray crystallography of two leads” (Bioorg Med Chem, 2017).
# Active and inactive are the calls of the source. No cut-off for these calls is given here.
# What was measured:
# Type in all cases: functional
# Oryctolagus cuniculus [1] = experiment: Ocular hypotensive activity in New Zealand albino rabbit eye assessed as reduction in hypertonic saline-induced intraocular pressure at 2% administered as eye drop measured at 60 mins post administration by applanation tonometry
# Oryctolagus cuniculus [2] = experiment: Ocular hypotensive activity in New Zealand albino rabbit eye assessed as reduction in hypertonic saline-induced intraocular pressure at 1% administered as eye drop measured at 60 mins post administration by applanation tonometry
# Oryctolagus cuniculus [3] = experiment: Ocular hypotensive activity in New Zealand albino rabbit eye assessed as reduction in hypertonic saline-induced intraocular pressure at 1% administered as eye drop measured at 4 hrs post administration by applanation tonometry
SMILES,Activity (Oryctolagus cuniculus [1]),Activity (Oryctolagus cuniculus [2]),Activity (Oryctolagus cuniculus [3])
CCN[C@H]1C[C@H](C)S(=O)(=O)c2sc(S(N)(=O)=O)cc21,Active,,
NS(=O)(=O)c1ccc(-c2cnc(C(=O)N3CCOCC3)o2)s1,,Active,Active
Cc1ncc(-c2ccc(S(N)(=O)=O)cc2)o1,,Active,Active
